# What was measured:
# [1] = target: T1, Histone-lysine N-methyltransferase NSD3 (Homo sapiens, UniProt Q9BZ95); test: Inhibition of recombinant NSD3 (1021 to 1322 residues) (unknown origin) expressed in Escherichia coli Rossetta (DE3)
# T1 sequence (Q9BZ95 whole entry): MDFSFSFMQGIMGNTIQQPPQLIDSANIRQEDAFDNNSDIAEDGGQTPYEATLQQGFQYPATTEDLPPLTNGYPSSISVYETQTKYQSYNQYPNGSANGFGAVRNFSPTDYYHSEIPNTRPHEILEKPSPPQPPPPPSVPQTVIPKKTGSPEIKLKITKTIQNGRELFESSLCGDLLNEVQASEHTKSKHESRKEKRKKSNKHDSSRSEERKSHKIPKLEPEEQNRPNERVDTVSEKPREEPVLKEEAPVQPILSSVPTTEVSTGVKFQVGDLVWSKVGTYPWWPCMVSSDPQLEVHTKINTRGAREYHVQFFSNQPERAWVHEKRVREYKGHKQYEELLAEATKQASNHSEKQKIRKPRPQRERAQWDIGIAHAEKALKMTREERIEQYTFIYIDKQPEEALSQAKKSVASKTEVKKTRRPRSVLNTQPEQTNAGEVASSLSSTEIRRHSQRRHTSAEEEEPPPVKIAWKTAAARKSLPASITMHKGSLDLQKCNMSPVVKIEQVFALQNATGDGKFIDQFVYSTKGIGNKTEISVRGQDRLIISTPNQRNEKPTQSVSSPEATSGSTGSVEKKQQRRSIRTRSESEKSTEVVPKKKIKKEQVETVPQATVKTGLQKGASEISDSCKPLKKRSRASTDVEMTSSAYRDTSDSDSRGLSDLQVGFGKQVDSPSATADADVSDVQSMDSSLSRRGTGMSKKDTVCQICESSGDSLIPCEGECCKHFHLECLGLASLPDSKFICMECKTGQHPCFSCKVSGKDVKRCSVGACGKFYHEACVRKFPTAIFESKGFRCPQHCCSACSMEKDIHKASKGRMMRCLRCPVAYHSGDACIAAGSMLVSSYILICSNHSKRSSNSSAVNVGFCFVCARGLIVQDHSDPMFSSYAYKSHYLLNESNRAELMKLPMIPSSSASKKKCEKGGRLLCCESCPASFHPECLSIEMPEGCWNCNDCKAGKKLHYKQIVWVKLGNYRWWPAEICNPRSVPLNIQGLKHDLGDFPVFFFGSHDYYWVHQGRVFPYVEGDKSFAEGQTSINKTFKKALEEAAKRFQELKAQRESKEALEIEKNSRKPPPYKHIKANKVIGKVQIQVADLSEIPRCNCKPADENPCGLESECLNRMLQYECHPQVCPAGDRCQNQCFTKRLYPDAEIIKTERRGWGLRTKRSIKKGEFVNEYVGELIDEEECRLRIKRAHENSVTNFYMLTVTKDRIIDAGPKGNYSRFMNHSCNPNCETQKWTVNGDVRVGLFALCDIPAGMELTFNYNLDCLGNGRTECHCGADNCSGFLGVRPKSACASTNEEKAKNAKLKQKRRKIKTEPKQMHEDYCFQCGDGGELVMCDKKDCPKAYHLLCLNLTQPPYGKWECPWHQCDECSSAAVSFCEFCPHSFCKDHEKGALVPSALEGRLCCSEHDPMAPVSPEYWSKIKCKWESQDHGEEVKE
# [2] = target: T1, Histone-lysine N-methyltransferase NSD3; test: Inhibition of recombinant NSD3 (1021 to 1322 residues) (unknown origin) expressed in Escherichia coli Rossetta (DE3) using H3K36me1 as substrate incubated for 20 mins in presence of SAM by HTRF assay
# [3] = target: T2, Histone-lysine N-methyltransferase NSD2 (Homo sapiens, UniProt O96028); test: Inhibition of recombinant NSD2 (942 to 1240 residues) (unknown origin) expressed in Escherichia coli Rossetta (DE3) using H3K36me1 as substrate incubated for 20 mins in presence of SAM by HTRF assay
# T2 sequence (O96028 whole entry): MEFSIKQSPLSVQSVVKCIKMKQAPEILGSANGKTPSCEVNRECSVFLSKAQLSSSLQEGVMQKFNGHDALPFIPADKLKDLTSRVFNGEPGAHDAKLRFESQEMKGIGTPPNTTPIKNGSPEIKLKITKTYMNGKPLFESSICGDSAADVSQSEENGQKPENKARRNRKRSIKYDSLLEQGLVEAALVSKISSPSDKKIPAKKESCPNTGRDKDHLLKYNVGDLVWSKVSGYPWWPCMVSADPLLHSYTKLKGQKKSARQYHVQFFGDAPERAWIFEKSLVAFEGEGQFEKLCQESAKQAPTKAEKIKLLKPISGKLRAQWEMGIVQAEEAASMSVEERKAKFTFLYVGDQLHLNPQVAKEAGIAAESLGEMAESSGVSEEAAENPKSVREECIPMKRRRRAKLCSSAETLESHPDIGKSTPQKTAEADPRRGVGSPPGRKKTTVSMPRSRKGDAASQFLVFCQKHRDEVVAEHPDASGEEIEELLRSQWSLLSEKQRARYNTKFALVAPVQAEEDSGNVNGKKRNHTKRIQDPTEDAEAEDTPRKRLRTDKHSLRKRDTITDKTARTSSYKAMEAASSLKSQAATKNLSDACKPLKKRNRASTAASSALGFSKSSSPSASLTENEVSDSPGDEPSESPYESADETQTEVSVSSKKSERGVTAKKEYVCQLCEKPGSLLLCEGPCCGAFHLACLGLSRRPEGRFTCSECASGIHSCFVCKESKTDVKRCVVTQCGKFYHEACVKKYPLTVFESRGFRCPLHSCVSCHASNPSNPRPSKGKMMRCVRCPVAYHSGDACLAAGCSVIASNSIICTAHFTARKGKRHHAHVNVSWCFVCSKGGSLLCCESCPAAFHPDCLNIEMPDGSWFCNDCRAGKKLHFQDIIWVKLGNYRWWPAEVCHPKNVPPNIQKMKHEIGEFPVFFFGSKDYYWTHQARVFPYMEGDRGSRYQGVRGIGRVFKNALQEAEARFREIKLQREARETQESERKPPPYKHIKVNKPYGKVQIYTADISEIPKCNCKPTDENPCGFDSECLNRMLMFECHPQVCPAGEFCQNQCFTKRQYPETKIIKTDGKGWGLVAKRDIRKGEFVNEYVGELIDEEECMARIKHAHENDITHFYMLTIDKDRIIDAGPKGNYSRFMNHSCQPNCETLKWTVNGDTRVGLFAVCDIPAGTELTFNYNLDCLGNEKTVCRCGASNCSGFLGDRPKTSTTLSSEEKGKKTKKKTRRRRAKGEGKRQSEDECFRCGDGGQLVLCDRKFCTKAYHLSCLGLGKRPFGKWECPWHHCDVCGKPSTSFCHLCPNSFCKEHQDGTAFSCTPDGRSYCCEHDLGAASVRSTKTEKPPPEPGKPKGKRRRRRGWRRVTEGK
# [4] = Inhibition of cell proliferation of rat RN 22 cells incubated for 6 days by Real-time Glow MT assay; format: functional, cell-based; settings: RN 22, 144 h
IC50 [1],IC50 [2],Structure (SMILES),also measured
32.2 µM,–,CCOc1ccc(OCCn2c(S)nc3c(N)ncnc32)cc1,–
14.3 µM,–,Cc1ccc(OCCn2c(S)nc3c(N)ncnc32)cc1,–
–,Not Active,N#Cc1ccccc1OCCn1cnc2c(N)ncnc21,–
–,Not Active,CSc1nc2c(N)ncnc2n1CCOc1ccc(C#N)cc1,IC50 [3]: Not Active
–,Not Active,Nc1ncnc2c1ncn2CCOc1ccccc1Cl,–
–,Not Active,N#Cc1ccc(OCCn2c(Br)nc3c(N)ncnc32)cc1,–
–,Not Active,Nc1ccc(OCCn2cnc3c(N)ncnc32)cc1,–
–,Not Active,CC(=O)Nc1ccc(OCCn2cnc3c(N)ncnc32)cc1,–
–,–,Cc1cc(CN)cc(C)c1-c1ncn(C)c1-c1ccnc2cc(F)ccc12,IC50 [4]: 13 µM
13.8 µM,–,CC(C)Oc1ccc(OCCn2c(S)nc3c(N)ncnc32)cc1,–
